Earlier results on two molecules are cited in patent US9464021B2, “Method of preparation of stereospecific quinone derivatives” (priority 2013, dated 2016).

For data set [1] the following is noted: liver fractions.
The conditions of data set [2]: in vivo.

As to `CC1=C(C/C=C(\C)CCC[C@H](C)CCC[C@H](C)CCCC(C)C)C(=O)c2ccccc2C1=O` (single isomer, unassigned) [trans isomer, phylloquinone], the hepatic subcellular distribution result in data set [1] was “associated principally with the microsomal fraction and subfractions”. Besides, in data set [2], the “biological activity as vitamin K” value is recorded as “full potency of the vitamin”.

Consider `CC1=C(C/C=C(/C)CCC[C@H](C)CCC[C@H](C)CCCC(C)C)C(=O)c2ccccc2C1=O` (relative stereo) [cis-phylloquinone], for which the hepatic subcellular distribution result in data set [1] is “retained preferentially by mitochondria”. For the same molecule, the “biological activity as vitamin K” value in data set [2] is “little or no biological activity as vitamin K”.
